“And” between values parts separate entries of the source, which are not always exact repeats. Identical values can stand only once. “Also recorded” adds a separate entry of the source.
Assays:
[1] = Competitive ITC of AMA, Zn2+ and Ni2+ (Ni2+ affinity of AMA); type: binding; details: competition ITC, 25 mM Tris-HCl, 150 mM NaCl, pH 7.5, 37 °C; estimated; read-out: KD for Ni^2+
[2] = system: K. pneumoniae ATCC 33495; test: Galleria mellonella infection model; type: in vivo; details: for survival curve event per larva: K. pneumoniae + 7.5 μg/mL Zn-AMA, one cell per larva
Protocol: (§1) The cell suspensions were mixed at an equal volume of 300 μg/mL Zn-AMA before injection. The larvae were each injected with 10 μL ([…]) of bacterial suspension with and without Zn-AMA or PBS. Ten larvae were used per group, incubated at 30 °C, and monitored on a 24-hour cycle. Fresh G. mellonella larvae were obtained from The Dragon Lair (www.thedragonlair.ca).

[3] = system: S. aureus USA300 ureC::tn; test: Galleria mellonella infection model; type: in vivo; details: for survival curve event per larva: S. aureus ureC::Tn + 7.5 μg/mL Zn-AMA, one cell per larva
Protocol: as §1

[4] = system: S. aureus USA300; test: Galleria mellonella infection model; type: in vivo; details: for survival curve event per larva: S. aureus + 7.5 μg/mL Zn-AMA, one cell per larva
Protocol: as §1

[5] = biological target: NikA (Klebsiella pneumoniae, UniProt A6TFA3); type: binding
Chain of NikA (A6TFA3 entry or part of it): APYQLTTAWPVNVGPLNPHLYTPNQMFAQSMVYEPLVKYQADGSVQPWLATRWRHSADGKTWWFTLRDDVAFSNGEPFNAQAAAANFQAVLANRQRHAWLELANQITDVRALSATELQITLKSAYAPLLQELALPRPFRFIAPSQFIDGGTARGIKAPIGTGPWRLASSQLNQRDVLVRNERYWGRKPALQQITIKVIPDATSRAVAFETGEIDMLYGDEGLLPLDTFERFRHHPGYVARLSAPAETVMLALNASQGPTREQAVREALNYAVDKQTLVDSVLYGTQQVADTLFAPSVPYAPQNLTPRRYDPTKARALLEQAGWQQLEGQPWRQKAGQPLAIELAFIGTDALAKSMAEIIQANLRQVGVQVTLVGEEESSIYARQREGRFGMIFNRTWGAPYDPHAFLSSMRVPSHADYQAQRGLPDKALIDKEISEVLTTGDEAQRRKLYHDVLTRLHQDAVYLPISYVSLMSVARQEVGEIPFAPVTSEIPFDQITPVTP

[6] = system: S. aureus biofilm; test: Polystyrene microtiter biofilm assay (crystal violet); type: cell-based, Staphylococcus aureus USA300; details: artificial urine or M9
Protocol: Biofilm assays to assess the effect of Zn-AMA were adapted from a previously described method. Overnight cultures of K. pneumoniae or S. aureus USA300 were diluted in sterile saline (NaCl, 0.9% w/v) to an OD600 of 0.1 and diluted 1/200 in either M9-Cas, or artificial urine. Two-fold dilutions of Zn-AMA were added to the cells in a 96-well round-bottom microtiter plate, and the cells were grown at 37 °C for 18 hours in a static incubator. Following incubation, the microtiter plates were agitated on an orbital shaker (300 rpm, 2 min), the planktonic cells were transferred to a fresh plate, and their OD600 was quantified. The biofilms were washed three times with deionized water, air-dried, and stained with 0.1% crystal violet for 15 min. Excess crystal violet was removed, the plates were washed with deionized water three times, and they were air-dried for 1 hour. The crystal violet-stained biofilms were solubilized in 33% acetic acid (100 μL) for 5 min, and the absorbance (600 nm) was measured. Experiments were performed in four replicates, and absorbance measurements were performed in a BioTek Synergy H1 plate reader.

N[C@@H](CN[C@@H](CN[C@@H](CC(=O)O)C(=O)O)C(=O)O)C(=O)O [AMA, aspergillomarasmine A]
Kd [1]: ~0.08 nM and 0.08 nM

N[C@@H](CN[C@@H](CN[C@@H](CC(=O)O)C(=O)O)C(=O)O)C(=O)O.[Zn+2] [Zn-AMA]
survival curve event per larva ([2]; day 1 post infection): 1 | survival curve event per larva ([2]; day 2 post infection): 1 | survival curve event per larva ([2]; day 3 post infection): 1 | survival curve event per larva ([2]; day 5 post infection): 1 | G. mellonella larvae survival ([2]; K. pneumoniae infection, 7.5 mg/kg, seven days): significantly enhance the survival; also recorded: effective monotherapy | G. mellonella larvae survival ([3]; S. aureus USA300 ureC::tn infection, 7.5 mg/kg): no effect on the survival; also recorded: no significant survival benefit | survival curve event per larva ([3]; day 1 post infection): 1 | survival curve event per larva ([3]; day 2 post infection): 1 | survival curve event per larva ([3]; day 3 post infection): 1 | survival curve event per larva ([3]; day 5 post infection): 1 | survival curve event per larva ([4]; day 1 post infection): 1 | survival curve event per larva ([4]; day 2 post infection): 1 | survival curve event per larva ([4]; day 3 post infection): 1 | survival curve event per larva ([4]; day 5 post infection): 1 | survival curve event per larva ([4]; day 7 post infection): 0 | G. mellonella larvae survival ([4]; S. aureus USA300 infection, 7.5 mg/kg, seven days): significantly enhance the survival; also recorded: effective monotherapy | fold greater KD (weaker affinity) relative to Ni-(L-His)2 [5]: 14 fold | n (stoichiometry, ITC) ([5]; 37 °C, pH 7.5): 0.78 | ∆G ([5]; 37 °C, pH 7.5): -7.3 kcal/mol | ∆H ([5]; 37 °C, pH 7.5): -11.6 kcal/mol | −T∆S ([5]; 37 °C, pH 7.5): 4.3 kcal/mol | Kd ([5]; read-out: KD for NikA (ITC), 25 mM Tris-HCl, 150 mM NaCl, 0.1% Triton X-100, pH 7.5, 37 °C): 6800 ± 400 nM | effect on biofilm production [6]: anti-biofilm activity was not observed

Source: paper PMC11091072, “Targeting bacterial nickel transport with aspergillomarasmine A suppresses virulence-associated Ni-dependent enzymes” (Nature Communications, 2024)
